According to patent publication US11053204B2, “Pyrimidinyloxy benzene derivatives as herbicides” (FMC Corporation, priority 2015, dated 2021):

How the values were obtained:
Format in all cases: in vivo
[1] = test system: galium (catchweed bedstraw, Galium aparine); assay: Test C preemergence, plant response rating
[2] = test system: geranium, cutleaf (cutleaf geranium, Geranium dissectum); assay: Test C postemergence, plant response rating; details: for Geranium, Cutleaf plant response rating: scale 0 to 100 (0 no effect, 100 complete control)
How it was run: (§1)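 Visual injury score, 0 = no effect, 100 = complete control, assigned against untreated controls after 13 to 15 d in the greenhouse. Compounds were applied in a surfactant-containing non-phytotoxic solvent mix, preemergence to seeded loam/sand or silt loam soil, or postemergence to 1- to 4-leaf plants (2 to 18 cm).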

[3] = test system: windgrass (Apera spica-venti); assay: Test C postemergence, plant response rating
How it was run: as §1

[4] = test system: buckwheat, wild (wild buckwheat, Polygonum convolvulus); assay: Test C postemergence, plant response rating; details: for Buckwheat, Wild plant response rating: scale 0 to 100 (0 no effect, 100 complete control)
How it was run: as §1

[5] = test system: wild poinsettia (Euphorbia heterophylla); assay: Test C postemergence, plant response rating; details: for Poinsettia, Wild plant response rating: scale 0 to 100 (0 no effect, 100 complete control)
How it was run: as §1

[6] = test system: pigweed, palmer (palmer pigweed, Amaranthus palmeri); assay: Test C postemergence, plant response rating; details: for Pigweed, Palmer plant response rating: scale 0 to 100 (0 no effect, 100 complete control)
How it was run: as §1

[7] = test system: wild mustard (Sinapis arvensis); assay: Test C postemergence, plant response rating; details: for Mustard, Wild plant response rating: scale 0 to 100 (0 no effect, 100 complete control)
How it was run: as §1

[8] = test system: speedwell (bird's-eye speedwell, Veronica persica); assay: Test C postemergence, plant response rating; details: for Speedwell plant response rating: scale 0 to 100 (0 no effect, 100 complete control)
How it was run: as §1

[9] = test system: field violet (Viola arvensis); assay: Test C postemergence, plant response rating; details: for Field Violet plant response rating: scale 0 to 100 (0 no effect, 100 complete control)
How it was run: as §1

[10] = test system: johnsongrass (Sorghum halepense); assay: Test C postemergence, plant response rating; details: for Johnsongrass plant response rating: scale 0 to 100 (0 no effect, 100 complete control)
How it was run: as §1

[11] = test system: Canada thistle (Cirsium arvense); assay: Test C postemergence, plant response rating; details: for Canada Thistle plant response rating: scale 0 to 100 (0 no effect, 100 complete control)
How it was run: as §1

[12] = test system: nightshade (eastern black nightshade, Solanum ptycanthum); assay: Test C postemergence, plant response rating; details: for Nightshade plant response rating: scale 0 to 100 (0 no effect, 100 complete control)
How it was run: as §1

[13] = test system: field poppy (Papaver rhoeas); assay: Test C postemergence, plant response rating; details: for Field Poppy plant response rating: scale 0 to 100 (0 no effect, 100 complete control)
How it was run: as §1

[14] = test system: surinam grass (Brachiaria decumbens); assay: Test C postemergence, plant response rating
How it was run: as §1

kochia (Kochia scoparia) = assay: Test C preemergence, plant response rating
[15] = test system: pigweed, palmer (palmer pigweed, Amaranthus palmeri); assay: Test C preemergence, plant response rating
[16] = test system: windgrass (Apera spica-venti); assay: Test C preemergence, plant response rating
[17] = test system: johnsongrass (Sorghum halepense); assay: Test C preemergence, plant response rating
[18] = 125 g ai/ha, scale 0 to 100 (0 no effect, 100 complete control)

## O=C(CCCC(F)(F)F)c1c(Cl)cccc1Oc1ncc(Cl)cn1 [Compound 143]
[1]; 31 g ai/ha, scale 0 to 100
  Plant response rating, Galium: 30
[1]; 62 g ai/ha, scale 0 to 100
  Plant response rating, Galium: 80
[1]; 125 g ai/ha, scale of 0 to 100
  Plant response rating, Galium: 80
[2]; 16 g ai/ha, scale of 0 to 100
  Plant response rating, Geranium, Cutleaf: 30
[2]; 31 g ai/ha, scale 0 to 100
  Plant response rating, Geranium, Cutleaf: 50
[2]; 62 g ai/ha
  Geranium, Cutleaf plant response rating: 60
[2]; 125 g ai/ha
  Geranium, Cutleaf plant response rating: 75
[3]; 16 g ai/ha, scale of 0 to 100
  Plant response rating, Windgrass: 30
[3]; 31 g ai/ha, scale 0 to 100
  Plant response rating, Windgrass: 35
[3]; [18]
  Windgrass plant response rating: 40
[4]; 16 g ai/ha, scale of 0 to 100
  Plant response rating, Buckwheat, Wild: 75
[4]; 31 g ai/ha, scale 0 to 100
  Plant response rating, Buckwheat, Wild: 85
[4]; 62 g ai/ha
  Buckwheat, Wild plant response rating: 100
[4]; 125 g ai/ha
  Buckwheat, Wild plant response rating: 100
[5]; 16 g ai/ha, scale of 0 to 100
  Plant response rating, Poinsettia, Wild: 55
[5]; 31 g ai/ha, scale 0 to 100
  Plant response rating, Poinsettia, Wild: 65
[5]; 62 g ai/ha
  Poinsettia, Wild plant response rating: 70
[5]; 125 g ai/ha
  Poinsettia, Wild plant response rating: 75
[6]; 16 g ai/ha, scale of 0 to 100
  Plant response rating, Pigweed, Palmer: 45
[6]; 31 g ai/ha, scale 0 to 100
  Plant response rating, Pigweed, Palmer: 75
[6]; 62 g ai/ha
  Pigweed, Palmer plant response rating: 80
[6]; 125 g ai/ha
  Pigweed, Palmer plant response rating: 100
[7]; 16 g ai/ha, scale of 0 to 100
  Plant response rating, Mustard, Wild: 100
[7]; 31 g ai/ha, scale 0 to 100
  Plant response rating, Mustard, Wild: 100
[7]; 62 g ai/ha
  Mustard, Wild plant response rating: 100
[7]; 125 g ai/ha
  Mustard, Wild plant response rating: 100
[8]; 16 g ai/ha, scale of 0 to 100
  Plant response rating, Speedwell: 80
[8]; 31 g ai/ha, scale 0 to 100
  Plant response rating, Speedwell: 80
[8]; 62 g ai/ha
  Speedwell plant response rating: 85
[8]; 125 g ai/ha
  Speedwell plant response rating: 100
[9]; 16 g ai/ha, scale of 0 to 100
  Plant response rating, Field Violet: 75
[9]; 31 g ai/ha, scale 0 to 100
  Plant response rating, Field Violet: 80
[9]; 62 g ai/ha
  Field Violet plant response rating: 98
[9]; 125 g ai/ha
  Field Violet plant response rating: 100
[10]; 16 g ai/ha, scale of 0 to 100
  Plant response rating, Johnsongrass: 5
[10]; 31 g ai/ha, scale 0 to 100
  Plant response rating, Johnsongrass: 5
[10]; 62 g ai/ha
  Johnsongrass plant response rating: 10
[10]; 125 g ai/ha
  Johnsongrass plant response rating: 20
[11]; 16 g ai/ha, scale of 0 to 100
  Plant response rating, Canada Thistle: 85
[11]; 31 g ai/ha, scale 0 to 100
  Plant response rating, Canada Thistle: 85
[11]; 62 g ai/ha
  Canada Thistle plant response rating: 90
[11]; 125 g ai/ha
  Canada Thistle plant response rating: 100
[12]; 16 g ai/ha, scale of 0 to 100
  Plant response rating, Nightshade: 65
[12]; 31 g ai/ha, scale 0 to 100
  Plant response rating, Nightshade: 85
[12]; 62 g ai/ha
  Nightshade plant response rating: 90
[12]; 125 g ai/ha
  Nightshade plant response rating: 90
[13]; 16 g ai/ha, scale of 0 to 100
  Plant response rating, Field Poppy: 80
[13]; 31 g ai/ha, scale 0 to 100
  Plant response rating, Field Poppy: 90
[13]; 62 g ai/ha
  Field Poppy plant response rating: 90
[13]; 125 g ai/ha
  Field Poppy plant response rating: 100
[14]; 16 g ai/ha, scale of 0 to 100
  Plant response rating, Surinam Grass: 5
[14]; 31 g ai/ha, scale 0 to 100
  Plant response rating, Surinam Grass: 10
[14]; [18]
  Surinam Grass plant response rating: 20
Kochia (Kochia scoparia); 31 g ai/ha, scale 0 to 100
  Plant response rating, Kochia: 80
Kochia (Kochia scoparia); 62 g ai/ha, scale 0 to 100
  Plant response rating, Kochia: 90
Kochia (Kochia scoparia); 125 g ai/ha, scale of 0 to 100
  Plant response rating, Kochia: 90
[15]; 31 g ai/ha, scale 0 to 100
  Plant response rating, Pigweed, Palmer: 100
[15]; 62 g ai/ha, scale 0 to 100
  Plant response rating, Pigweed, Palmer: 100
[15]; 125 g ai/ha, scale of 0 to 100
  Plant response rating, Pigweed, Palmer: 100
[16]; 31 g ai/ha, scale 0 to 100
  Plant response rating, Windgrass: 85
[16]; 62 g ai/ha, scale 0 to 100
  Plant response rating, Windgrass: 100
[16]; 125 g ai/ha, scale of 0 to 100
  Plant response rating, Windgrass: 100
[17]; 31 g ai/ha, scale 0 to 100
  Plant response rating, Johnsongrass: 25
[17]; 62 g ai/ha, scale 0 to 100
  Plant response rating, Johnsongrass: 50
[17]; 125 g ai/ha, scale of 0 to 100
  Plant response rating, Johnsongrass: 80
